Experimental data published in publication PMC3782441, “Putative Bioactive Motif of Tritrpticin Revealed by an Antibody with Biological Receptor-Like Properties” (PLoS ONE, 2013).
≈ marks a conversion by molar mass, not a printed value. Entries after “also recorded” stand apart in the source; their conditions may differ. Where two headings read alike, the source gives them in different places. Where no end group is shown, it is not given here.

Columns and labels:
E. coli BL21λD3 [1] = format: cell-based; details: BL21λD3, 2 h
Procedure: (§1) Radial diffusion assay using double-layered agarose involved incubating ~ 2 x 10^6 mid-log phase bacterial cells with 50 nmol of peptide solution in nutrient-poor agarose at 37°C for 3 h. […] Minimum inhibitory concentration (MIC) was determined by broth microdilution method in which ~10^4 bacterial cells in 100 µl of 10 mM phosphate buffer were incubated for with serially diluted peptide solution in a 96-well microtiter plate for 2 hrs at 37°C. Addition of LB medium subsequently was used to ascertain the minimum peptide concentration sufficient to prevent bacterial growth, observable at OD600.

E. coli ATCC25922 = format: cell-based; details: ATCC25922, 2 h
Procedure: as §1

[2] = tested on: different bacterial strains; assay: Antimicrobial activity against different bacterial strains (radial diffusion, MIC); format: cell-based
Procedure: as §1

E. coli BL21λD3 [3] = assay: Radial diffusion assay, E. coli BL21λD3; format: cell-based; details: 50 nmol of peptide, 37°C for 3 h
Procedure: as §1

[4] = ref [20]; cited from earlier work
Text: (§2) It is now well established that antimicrobial peptides are an important component of the innate defenses in a wide variety of species. They display broad spectrum of activity, rapid killing kinetics, and a lower incidence of generating resistance and are being increasingly explored as an alternative to conventional antibiotics especially as more and more drug resistant strains emerge. As most of these peptides kill microorganisms rapidly as compared to other antibiotics, development of resistance to them also is less likely. One of the large classes of antimicrobial pepti ...

calmodulin = details: ref [19]; cited from earlier work
Text: as §2

topoisomerase I = details: ref [19]; cited from earlier work
Text: as §2

DNA = details: ref [17],[18]; cited from earlier work
Text: as §2

mAb 6C6D7 = assay: SPR binding of K-tritrpticin (immobilised) to mAb 6C6D7; design: species or system BALB/c mice; details: for ka (rate of association) / kd (rate of dissociation): BIAcore 2000, CM4 chip, bivalent model; for Kd: KD = kdiss/kass, read-out: KD (dissociation constant); for ΔGeq (Gibbs free energy at equilibrium): ΔGeq = RTlnKD
Procedure: (§3) Affinity measurements were based on surface plasmon resonance (SPR) technique, carried out on BIAcore 2000 (GE Healthcare). K-tritrpticin was amine coupled to a CM4 chip (~6 resonance units) and mAb 6C6D7 was injected as analyte with a 6 min association/15 min dissociation phase. Regeneration was achieved by 0.1 N HCl. Interaction curves were simultaneously fit using bivalent model in BIAevaluation program to determine KD = kdiss/kass and ΔGeq = RTlnKD, R is the universal gas constant and T is the temperature in kelvin. The temperature sensitivity of Ag association and dissociation rates of the Ab was assessed on the basis of the Arrhenius plots. The slopes of the Arrhenius plots provide the activation energy (Ea) for the corresponding steps. The individual thermodynamic parameters were calculated using the following equations: ΔHa/d = Ea-RT; ln(ka/d/T) = -ΔHa/d/RT + […] + ln(K'/h). In these equations K' represents Boltzmann’s constant and h the Planck’s constant. Using these equations, the corresponding values of ΔH, T∆S, and ΔG for association and dissociation as well as the corresponding net values at equilibrium were calculated.

K-tritrpticin (pig) [5] = biological target: T1, K-tritrpticin (pig); assay: SPR; BIAcore 2000; K-tritrpticin amine coupled to a CM4 chip (~6 RU), mAb 6C6D7 as analyte, 6 min association/15 min dissociation; bivalent model; 30 C
T1 sequence (peptide): KVRRFPWWWPFLRR

K-tritrpticin (pig) [6] = biological target: T1, K-tritrpticin (pig); assay: SPR; BIAcore 2000; K-tritrpticin amine coupled to a CM4 chip (~6 RU), mAb 6C6D7 as analyte, 6 min association/15 min dissociation; bivalent model; 15 C
K-tritrpticin (pig) [7] = biological target: T1, K-tritrpticin (pig); assay: SPR; BIAcore 2000; K-tritrpticin amine coupled to a CM4 chip (~6 RU), mAb 6C6D7 as analyte, 6 min association/15 min dissociation; bivalent model; 20 C
K-tritrpticin (pig) [8] = biological target: T1, K-tritrpticin (pig); assay: SPR; BIAcore 2000; K-tritrpticin amine coupled to a CM4 chip (~6 RU), mAb 6C6D7 as analyte, 6 min association/15 min dissociation; bivalent model; 35 C
K-tritrpticin (pig) [9] = biological target: T1, K-tritrpticin (pig); assay: SPR; BIAcore 2000; K-tritrpticin amine coupled to a CM4 chip (~6 RU), mAb 6C6D7 as analyte (62.5-1000 nM), 6 min association/15 min dissociation; bivalent model; 25 C
[10] = ELISA of hybridoma clones on indolicidin; format: binding
Text: (§4) The sera from the immunized mouse were checked for anti-tritrpticin antibody titers. The highest responder of the group of mice was then sacrificed to harvest B cells from the spleen. The cells were allowed to fuse with the SP2/0 myeloma cells, maintained in log phase, in the presence of PEG1600 (Sigma-Aldrich). The cells were subjected to hypoxanthine-aminopterin-thymidine (Sigma) selection in DMEM (PAA Laboratories GmbH, Austria) in which only the hybrid cells are able to survive and grow. The supernatant of the wells with colonies of hybrid cells was screened for the presence of peptide recognizing Ab by ELISA, in which tritrpticin was used as coating antigen. The positive clones were further subcloned using limited dilution technique to ensure monoclonality.
(§5) The binding of the Ab from cell supernatant or in purified form, to the various peptide ligands was assayed by indirect ELISA. The peptide analogs were used as coating Ag at a concentration of 10 µg per well on 96-well immunosorbent plates. […] HRP –labeled goat anti-mouse IgG was used as secondary Ab (Jackson Immuno Research) and o-phenylenediamine (Sigma) and H2O2 were used as peroxidase substrate. Absorbance was recorded at 490 nm after addition of 1 N H2SO4.

BSA = assay: ELISA of hybridoma clones on BSA (negative control); format: binding
Text: as §4, §5

[11] = ELISA of hybridoma clones on tritrpticin; format: binding; details: culture supernatant screening
Text: as §4, §5

[12] = SPR binding of mAb 6C6D7 (analyte) to peptide antigen K-tritrpticin
Procedure: as §3

[13] = equilibrium, all temperatures 15-35 °C, Arrhenius plot

For `CC(C)C[C@H](NC(=O)[C@H](Cc1ccccc1)NC(=O)[C@@H]1CCCN1C(=O)[C@H](Cc1c[nH]c2ccccc12)NC(=O)[C@H](Cc1c[nH]c2ccccc12)NC(=O)[C@H](Cc1c[nH]c2ccccc12)NC(=O)[C@@H]1CCCN1C(=O)[C@H](Cc1ccccc1)NC(=O)[C@H](CCCNC(=N)N)NC(=O)[C@H](CCCNC(=N)N)NC(=O)[C@@H](N)C(C)C)C(=O)N[C@@H](CCCNC(=N)N)C(=O)N[C@@H](CCCNC(=N)N)C(=O)O` [Tritrpticin], the MIC (E. coli BL21λD3 [1]) was 3.12 µM (≈ 5.94 µg/mL) and the MIC (E. coli ATCC25922) was 3.12 µM (≈ 5.94 µg/mL).

With “EHGTPPRVMSSM [unrelated peptide used as negative control, reference compound]” the “formation of clearance zone” value ([2]; 50 nmoles of peptide, radial diffusion, different bacterial strains) was “did not led to the formation of clearance zone” and the “formation of clearance zone” value (E. coli BL21λD3 [3]) was “did not led to the formation of clearance zone”.

For “ILPWKWPWWPWRR [indolicidin, closely related cathelicidin peptide indolicidin ([…])]”, the “interaction with ATP” value [4] is given as “interaction”, the interaction with calmodulin (calmodulin) is given as “interaction” and the “interaction with topoisomerase I” value (topoisomerase I) is given as “interaction”. For the same molecule, the “interaction with DNA” value (DNA) was “interaction”.

In the case of “K-tritrpticin: tritrpticin with lysine introduced at the N terminus (KVRRFPWWWPFLRR)”, the “ka (rate of association)” value (mAb 6C6D7; 15 °C) is reported as 24400 M⁻¹ s⁻¹, the “kd (rate of dissociation)” value (mAb 6C6D7; 15 °C) is reported as 0.00515 s⁻¹ and the Kd (mAb 6C6D7; 15 °C) is reported as 211 nM. For the same molecule, the “ΔGeq (Gibbs free energy at equilibrium)” value (mAb 6C6D7; 15 °C) was -8.80 kcal/mol, the “ka (rate of association)” value (mAb 6C6D7; 20 °C) was 37900 M⁻¹ s⁻¹ and the “kd (rate of dissociation)” value (mAb 6C6D7; 20 °C) was 0.0115 s⁻¹. For the same molecule, the Kd (mAb 6C6D7; 20 °C) was 303 nM, the “ΔGeq (Gibbs free energy at equilibrium)” value (mAb 6C6D7; 20 °C) was -8.74 kcal/mol and the “ka (rate of association)” value (mAb 6C6D7; 25 °C) was 39100 M⁻¹ s⁻¹. The “kd (rate of dissociation)” value (mAb 6C6D7; 25 °C) was 0.0137 s⁻¹, the Kd (mAb 6C6D7; 25 °C) was 350 nM and the “ΔGeq (Gibbs free energy at equilibrium)” value (mAb 6C6D7; 25 °C) was -8.80 kcal/mol. The “kd (rate of dissociation)” value (mAb 6C6D7; 30 °C) was 0.0231 s⁻¹, the Kd (mAb 6C6D7; 30 °C) was 545 nM and the “ΔGeq (Gibbs free energy at equilibrium)” value (mAb 6C6D7; 30 °C) was -8.68 kcal/mol. For the same molecule, the “ka (rate of association)” value (mAb 6C6D7; 35 °C) was 54100 M⁻¹ s⁻¹, the “kd (rate of dissociation)” value (mAb 6C6D7; 35 °C) was 0.0343 s⁻¹ and the Kd (mAb 6C6D7; 35 °C) was 634 nM. The “ΔGeq (Gibbs free energy at equilibrium)” value (mAb 6C6D7; 35 °C) was -8.73 kcal/mol.

For YHDRPPPRPFKH-OH [12PhD1], the MIC (E. coli BL21λD3 [1]) was 400 µM, the MIC (E. coli ATCC25922) was 400 µM and the “antimicrobial activity compared with tritrpticin” value [2] was “lower though qualitatively similar broad spectrum antimicrobial activity as tritrpticin”. The antibiotic activity ([2]; radial diffusion and MIC, bacterial strains) was “broad spectrum antibiotic activity”.

B1: anti-tritrpticin monoclonal antibody 6C6D7 (antibody, V domains shown)
VH: VELQESGPELVKPGASVKVSCKASGYSSTDYNMNWVKQSHGKSLEWIGSFDPYNGGITYNQKFEGKATLTVDKSSNTAFMHLNSLTSEDSAVYYCAKYFGYDAWFAYWGQGTLVTVST
VL: FIVMTQTPASLAVSLGQRATISCKASQSVDYGGDSYLNWYQQKPGQPPKLLIYAASNLESGIPARFSGSGSGTDFTLNIHPVEEEDAATYFCQQSHEDPLTFGAGTKLELR
B1 showed a Kd (K-tritrpticin (pig) [5]) of 545 nM, a koff (K-tritrpticin (pig) [5]) of 0.0231 s⁻¹ and a kon (K-tritrpticin (pig) [5]) of 44200 M⁻¹ s⁻¹. For the same molecule, the Kd (K-tritrpticin (pig) [6]) was 211 nM, the koff (K-tritrpticin (pig) [6]) was 0.00515 s⁻¹ and the kon (K-tritrpticin (pig) [6]) was 24400 M⁻¹ s⁻¹. For the same molecule, the Kd (K-tritrpticin (pig) [7]) was 303 nM, the koff (K-tritrpticin (pig) [7]) was 0.0115 s⁻¹ and the kon (K-tritrpticin (pig) [7]) was 37900 M⁻¹ s⁻¹. The Kd (K-tritrpticin (pig) [8]) was 634 nM, the koff (K-tritrpticin (pig) [8]) was 0.0343 s⁻¹ and the kon (K-tritrpticin (pig) [8]) was 54100 M⁻¹ s⁻¹. It also gave a Kd (K-tritrpticin (pig) [9]) of 350 nM, a koff (K-tritrpticin (pig) [9]) of 0.0137 s⁻¹ and a kon (K-tritrpticin (pig) [9]) of 39100 M⁻¹ s⁻¹.

B2: 6C6: anti-tritrpticin hybridoma clone, subcloned as 6C6D7 (antibody, V domains shown)
VH: VELQESGPELVKPGASVKVSCKASGYSSTDYNMNWVKQSHGKSLEWIGSFDPYNGGITYNQKFEGKATLTVDKSSNTAFMHLNSLTSEDSAVYYCAKYFGYDAWFAYWGQGTLVTVST
VL: FIVMTQTPASLAVSLGQRATISCKASQSVDYGGDSYLNWYQQKPGQPPKLLIYAASNLESGIPARFSGSGSGTDFTLNIHPVEEEDAATYFCQQSHEDPLTFGAGTKLELR
In the case of B2, the “binding to indolicidin (ELISA)” value [10] is reported as “not able to bind”, the “binding to BSA (ELISA)” value (BSA) is reported as “negligible binding; also recorded: not able to bind” and the “binding to tritrpticin (ELISA)” value [11] is reported as “significant binding”.

B3: mAb 6C6D7: anti-tritrpticin monoclonal antibody, 6C6 subcloned as 6C6D7 (antibody, V domains shown)
VH: VELQESGPELVKPGASVKVSCKASGYSSTDYNMNWVKQSHGKSLEWIGSFDPYNGGITYNQKFEGKATLTVDKSSNTAFMHLNSLTSEDSAVYYCAKYFGYDAWFAYWGQGTLVTVST
VL: FIVMTQTPASLAVSLGQRATISCKASQSVDYGGDSYLNWYQQKPGQPPKLLIYAASNLESGIPARFSGSGSGTDFTLNIHPVEEEDAATYFCQQSHEDPLTFGAGTKLELR
With B3 the “fold decrease in affinity (KD)” value ([12]; 15 °C to 35 °C) was 3 fold, the “fold increase in kdiss” value ([12]; 15 °C to 35 °C) was “approximately 7 fold” and the “fold increase in the association rate constant” value ([12]; 15 °C to 35 °C) was 2 fold. The kass ([12]; 25 °C) was 39100 M⁻¹ s⁻¹, the kdiss ([12]; 25 °C) was 0.0137 s⁻¹ and the Kd ([12]; 25 °C, read-out: affinity (KD)) was 350 nM. For the same molecule, the “temperature sensitivity of dissociation phase” value ([12]; Arrhenius plots, 15-35 °C) was “more sensitive to variation in temperature in comparison with the association phase”, the “enthalpy contribution to binding (ΔH)” value [12, 13] was “marginally unfavorable” and the “entropy contribution to binding (TΔS)” value [12, 13] was “highly favorable”.
